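Cells were grown in 96-well plates and exposed to each compound for 48 hours at five concentrations; endpoints were interpolated linearly between bracketing concentrations, or set to the highest concentration if not reached. TGI: concentration producing complete growth inhibition.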
What was measured:
Experiment in all cases: inhibition of tumour cell growth, NCI panel, 48 h
MCF7 breast = system: MCF7 breast
MDA-N = system: MDA-N
NCI/ADR-RES ovarian = system: NCI/ADR-RES ovarian
OVCAR-4 ovarian = system: OVCAR-4 ovarian
PC-3 prostate = system: PC-3 prostate
SK-MEL-28 melanoma = system: SK-MEL-28 melanoma
T-47D breast = system: T-47D breast
OVCAR-5 ovarian = system: OVCAR-5 ovarian
UACC-62 melanoma = system: UACC-62 melanoma
RPMI-8226 leukemia = system: RPMI-8226 leukemia

Row | Structure (SMILES) | TGI (MCF7 breast) [µM] | TGI (MDA-N) [µM] | TGI (NCI/ADR-RES ovarian) [µM] | TGI (OVCAR-4 ovarian) [µM] | TGI (PC-3 prostate) [µM] | TGI (SK-MEL-28 melanoma) [µM] | TGI (T-47D breast) [µM] | TGI (OVCAR-5 ovarian) [µM] | TGI (UACC-62 melanoma) [µM] | TGI (RPMI-8226 leukemia) [µM]
1 | C1CCC(OC2CSC2)OC1 (stereo not given) | > 100 | > 100 | > 100 | > 100 | > 100 | > 100 | > 100 | – | – | –
2 | CCCNC(C#N)c1ccc(C(C#N)NCCC)cc1 (stereo not given) | – | > 100 | > 100 | > 100 | > 100 | > 100 | > 100 | > 100 | > 100 | –
3 | COP(=O)(OC)C(Cc1c[nH]c2ccccc12)NC(=O)OCc1ccccc1 (stereo not given) | > 100 | > 100 | > 100 | > 100 | > 100 | > 100 | > 100 | > 100 | – | > 100
4 | CCCCc1ccc(Nc2ncc3[nH]cnc3n2)cc1 | > 100 | > 100 | 46 | 80.1 | – | – | 61 | > 100 | 49.6 | 71.2
5 | COc1cc(CC2c3cc(OC)c(OC)cc3CCN2C)c(Oc2cc3c(cc2OC)-c2c(O)c(OC)cc4c2C(C3)N(C)CC4)cc1OC (stereo not given) | 29.1 | 36.8 | 43.9 | 90.7 | 94.6 | 63.2 | 55 | > 100 | 40.1 | –
6 | O=C1/C(=C/c2ccccc2[N+](=O)[O-])N=C(c2ccccc2)N1C1Nc2cc3c(cc2S1)NC(N1C(=O)/C(=C/c2ccccc2[N+](=O)[O-])N=C1c1ccccc1)S3 (stereo not given) | > 100 | > 100 | 97.4 | > 100 | > 100 | > 100 | > 100 | > 100 | – | 49.7
7 | Oc1[nH]c2ccccc2c1N=Nc1nc(-c2ccc(Cl)c(Cl)c2)cs1 | > 100 | > 100 | > 100 | > 100 | > 100 | > 100 | > 100 | > 100 | – | –
8 | C=C(C)C(=O)[C@@]12C(=O)[C@@H](C)CC[C@H]1[C@H](C)C[C@@H]2C=C(C)C | 52.3 | 59.1 | 83.5 | > 100 | 59.4 | > 100 | – | 55.2 | > 100 | > 100
9 | [N-]=[N+]=NCc1cccc(Nc2cc(=O)[nH]c(=O)[nH]2)c1 | > 100 | > 100 | > 100 | – | – | > 100 | > 100 | > 100 | > 100 | > 100
10 | O=C1C(Br)=CC2(C=C1Br)CCNC1=C2C(=O)c2cccnc2C1=O | 41.3 | 3.46 | 49.1 | 31.2 | 39.7 | 29.3 | – | 33.1 | 12.9 | 36.9
11 | Cc1cc(S(=O)(=O)O)c(NC(=O)C(=O)C2C=CCS2(=O)=O)cc1Cl (stereo not given) | – | – | – | > 100 | – | > 100 | – | > 100 | > 100 | > 100
12 | C/C(=N\NC(N)=S)C(CN(CC(C)C)CC(C)C)C(=O)Nc1ccc(C)cc1C (stereo not given) | – | – | – | > 100 | – | > 100 | – | > 100 | > 100 | –
13 | COc1ccc2c(c1)n([O-])c(C#N)c(N1CCN(c3ccc([N+](=O)[O-])cc3)CC1)[n+]2=O | – | > 100 | 11.8 | > 100 | > 100 | > 69.7 | 14.8 | > 100 | > 100 | –
14 | O=C1Cc2c([nH]c3ccc(Br)cc23)-c2ccccc2N1 | – | > 100 | > 100 | > 100 | > 100 | > 100 | > 100 | > 100 | > 100 | > 100
15 | C=CCNC(=O)NC1=CSC2=NC(=O)C3(NN12)c1ccccc1-c1ccccc13 | > 10 | – | > 10 | > 10 | > 10 | > 10 | > 10 | > 10 | > 10 | > 10
16 | CC(CO)C1C[C@H](O)[C@@]2(C)CC(=O)C=C(CO)[C@@H]2C1 (stereo not given in full) | > 100 | > 100 | > 100 | > 100 | – | > 100 | > 100 | > 100 | > 100 | –
17 | OC1(c2cc3ccccc3s2)CCCCC1 | > 100 | > 100 | > 100 | > 100 | – | > 100 | – | > 100 | > 100 | –
18 | CC(=O)O[C@]12CCCC1C1(O)C(O)CCCC12 (stereo not given in full) | – | – | – | > 100 | – | > 100 | – | – | > 100 | > 100
19 | COC(=O)/C=C/c1cc(O)c2c(c1)[C@H](C(=O)OC)[C@@H](c1ccc(O)c(O)c1)O2 | > 100 | – | – | > 100 | > 100 | > 71 | – | > 100 | > 59.5 | > 41
